The text below walks through data of paper PMC3684443 (ACS chemical biology, 2012).

Experiment [1] relates to HNSCC cell line 1483 xenograft tumors. Put plainly: Antitumor effect in HNSCC xenograft model, tumor volume. The class given is in vivo, Athymic nude mice. The following applies: 2 weeks treatment, comparison between the three treated groups.
A further experiment concerns HNSCC. The following applies: cited from earlier work.

In the case of `C#Cc1cccc(Nc2ncnc3cc(OCCOC)c(OCCOC)cc23)c1` [erlotinib], in experiment [1], the “Response among erlotinib, cetuximab and EGFRAS-GPNA groups” value is recorded as “no significant difference”. Further, the Clinical response rate in the experiment on HNSCC (HNSCC and NSCLC patients) is 4%. Also, the Disease stabilization with HNSCC (phase II trial, for 16 weeks) is reported as 38%. Also, in the experiment on HNSCC (phase II trial), the Response rate is reported as 4%.
